Experimental data reported in ChEMBL document CHEMBL1764973 (J Med Chem, 2011).
One block for each compound: values may come before it.

Legend:
[1] = Binding affinity to benzodiazepine binding site of GABAA receptor
[2] = target: Cannabinoid receptor 2 (Homo sapiens, UniProt P34972); assay: Displacement of [3H]CP55940 from CB2 receptor
[3] = target: Translocator protein (Rattus norvegicus, UniProt P16257)
[4] = target: Cannabinoid receptor 1 (Homo sapiens, UniProt P21554); assay: Displacement of [3H]CP55940 from CB1 receptor
[5] = target: Histamine H3 receptor (Homo sapiens) (UniProt Q9Y5N1); details: 10 uM
[6] = target: Muscarinic acetylcholine receptor M4 (Homo sapiens) (UniProt P08173); details: 10 uM
[7] = target: Vasopressin V1a receptor (Homo sapiens) (UniProt P37288); details: 10 uM
[8] = target: D(4) dopamine receptor (Homo sapiens) (UniProt P21917); details: 10 uM
[9] = target: 5-hydroxytryptamine receptor 5A (Homo sapiens) (UniProt P47898); details: 10 uM
[10] = target: 5-hydroxytryptamine receptor 2A (Homo sapiens) (UniProt P28223); details: 10 uM
[11] = target: Muscarinic acetylcholine receptor M3 (Homo sapiens) (UniProt P20309); details: 10 uM
[12] = target: Histamine H1 receptor (Homo sapiens) (UniProt P35367); details: 10 uM
[13] = target: Delta-type opioid receptor (Homo sapiens) (UniProt P41143); details: 10 uM
[14] = target: Vasopressin V1b receptor (Homo sapiens) (UniProt P47901); details: 10 uM
[15] = target: 5-hydroxytryptamine receptor 6 (Homo sapiens) (UniProt P50406); details: 10 uM
[16] = target: Muscarinic acetylcholine receptor M5 (Homo sapiens) (UniProt P08912); details: 10 uM
[17] = target: Beta-3 adrenergic receptor (Homo sapiens) (UniProt P13945); details: 10 uM
[18] = target: Beta-1 adrenergic receptor (Homo sapiens) (UniProt P08588); details: 10 uM
[19] = target: D(3) dopamine receptor (Homo sapiens) (UniProt P35462); details: 10 uM
[20] = target: 5-hydroxytryptamine receptor 1E (Homo sapiens) (UniProt P28566); details: 10 uM
[21] = target: Kappa-type opioid receptor (Homo sapiens, UniProt P41145); assay: Binding affinity to kappa opioid receptor by radioligand binding assay
[22] = target: D(1B) dopamine receptor (Homo sapiens, UniProt P21918); assay: Binding affinity to opamine D5 receptor by radioligand binding assay
[23] = target: Alpha-2C adrenergic receptor (Homo sapiens) (UniProt P18825); details: 10 uM
[24] = target: 5-hydroxytryptamine receptor 3A (Homo sapiens) (UniProt P46098); details: 10 uM
[25] = target: Sigma non-opioid intracellular receptor 1 (Homo sapiens) (UniProt Q99720); details: 10 uM
[26] = target: Mu-type opioid receptor (Homo sapiens) (UniProt P35372); details: 10 uM
[27] = target: Sodium-dependent dopamine transporter (Homo sapiens) (UniProt Q01959); details: 10 uM
[28] = target: Alpha-1A adrenergic receptor (Homo sapiens) (UniProt P35348); details: 10 uM
[29] = target: 5-hydroxytryptamine receptor 1A (Homo sapiens) (UniProt P08908); details: 10 uM
[30] = target: Sodium-dependent serotonin transporter (Homo sapiens) (UniProt P31645); details: 10 uM
[31] = target: Vasopressin V2 receptor (Homo sapiens) (UniProt P30518); details: 10 uM
[32] = target: 5-hydroxytryptamine receptor 7 (Homo sapiens) (UniProt P34969); details: 10 uM
[33] = target: Histamine H4 receptor (Homo sapiens) (UniProt Q9H3N8); details: 10 uM
[34] = target: Sodium-dependent noradrenaline transporter (Homo sapiens) (UniProt P23975); details: 10 uM
[35] = target: Muscarinic acetylcholine receptor M1 (Homo sapiens) (UniProt P11229); details: 10 uM
[36] = target: D(2) dopamine receptor (Homo sapiens) (UniProt P14416); details: 10 uM
[37] = target: Histamine H2 receptor (Homo sapiens) (UniProt P25021); details: 10 uM
[38] = target: Alpha-2B adrenergic receptor (Homo sapiens) (UniProt P18089); details: 10 uM
[39] = target: Alpha-2A adrenergic receptor (Homo sapiens) (UniProt P08913); details: 10 uM
[40] = target: 5-hydroxytryptamine receptor 2B (Homo sapiens) (UniProt P41595); details: 10 uM
[41] = target: T1, 5-hydroxytryptamine receptor 1D (Homo sapiens, UniProt P28221); assay: Binding affinity to 5HT1D receptor by radioligand binding assay
[42] = target: 5-hydroxytryptamine receptor 2C (Homo sapiens) (UniProt P28335); details: 10 uM
[43] = target: Alpha-1B adrenergic receptor (Homo sapiens) (UniProt P35368); details: 10 uM
[44] = target: T1, 5-hydroxytryptamine receptor 1D; details: 10 uM
[45] = target: D(1A) dopamine receptor (Homo sapiens) (UniProt P21728); details: 10 uM
[46] = target: Muscarinic acetylcholine receptor M2 (Homo sapiens) (UniProt P08172); details: 10 uM
Chain of Muscarinic acetylcholine receptor M2 (Homo sapiens) (P08172 whole entry): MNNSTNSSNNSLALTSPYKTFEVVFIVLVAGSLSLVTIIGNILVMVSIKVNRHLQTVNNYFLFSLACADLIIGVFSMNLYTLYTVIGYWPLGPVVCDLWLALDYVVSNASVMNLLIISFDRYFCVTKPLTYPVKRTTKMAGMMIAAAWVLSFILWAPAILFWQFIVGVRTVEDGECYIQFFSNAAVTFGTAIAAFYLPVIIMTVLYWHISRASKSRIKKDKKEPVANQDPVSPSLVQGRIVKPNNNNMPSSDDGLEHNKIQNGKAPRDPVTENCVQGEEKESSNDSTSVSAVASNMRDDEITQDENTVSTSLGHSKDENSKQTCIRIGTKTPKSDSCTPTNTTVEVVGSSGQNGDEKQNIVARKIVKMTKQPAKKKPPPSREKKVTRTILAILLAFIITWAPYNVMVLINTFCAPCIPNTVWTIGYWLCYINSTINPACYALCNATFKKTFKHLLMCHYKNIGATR

Chain of Cannabinoid receptor 1 (P21554 whole entry): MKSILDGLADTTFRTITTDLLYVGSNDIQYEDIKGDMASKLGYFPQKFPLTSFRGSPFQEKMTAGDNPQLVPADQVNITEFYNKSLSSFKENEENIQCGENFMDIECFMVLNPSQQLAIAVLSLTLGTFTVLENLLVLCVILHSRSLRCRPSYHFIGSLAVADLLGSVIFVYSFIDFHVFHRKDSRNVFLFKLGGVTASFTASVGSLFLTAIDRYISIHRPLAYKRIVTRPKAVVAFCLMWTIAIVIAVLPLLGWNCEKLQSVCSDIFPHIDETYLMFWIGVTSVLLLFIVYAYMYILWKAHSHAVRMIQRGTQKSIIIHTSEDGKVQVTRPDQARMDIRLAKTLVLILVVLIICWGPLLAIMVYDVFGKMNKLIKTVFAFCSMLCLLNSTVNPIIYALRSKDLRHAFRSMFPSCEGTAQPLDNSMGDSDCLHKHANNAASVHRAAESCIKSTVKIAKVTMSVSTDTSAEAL
Chain of Cannabinoid receptor 2 (P34972 whole entry): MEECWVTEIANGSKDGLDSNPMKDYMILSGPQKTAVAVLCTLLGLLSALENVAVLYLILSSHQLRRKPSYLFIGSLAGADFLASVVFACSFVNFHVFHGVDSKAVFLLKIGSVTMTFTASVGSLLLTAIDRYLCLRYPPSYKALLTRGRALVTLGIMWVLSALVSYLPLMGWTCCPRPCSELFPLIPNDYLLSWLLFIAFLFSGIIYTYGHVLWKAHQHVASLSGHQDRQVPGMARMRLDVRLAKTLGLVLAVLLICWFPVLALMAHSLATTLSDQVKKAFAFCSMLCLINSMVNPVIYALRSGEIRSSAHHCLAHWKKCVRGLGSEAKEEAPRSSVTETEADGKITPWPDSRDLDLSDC
Chain of Translocator protein (P16257 whole entry, looked up): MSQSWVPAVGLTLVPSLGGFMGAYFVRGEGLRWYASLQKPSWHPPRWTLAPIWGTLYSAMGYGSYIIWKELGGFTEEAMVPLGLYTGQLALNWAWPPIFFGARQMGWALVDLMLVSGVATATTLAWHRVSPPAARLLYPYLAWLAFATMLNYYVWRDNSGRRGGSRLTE
T1 sequence (P28221 whole entry): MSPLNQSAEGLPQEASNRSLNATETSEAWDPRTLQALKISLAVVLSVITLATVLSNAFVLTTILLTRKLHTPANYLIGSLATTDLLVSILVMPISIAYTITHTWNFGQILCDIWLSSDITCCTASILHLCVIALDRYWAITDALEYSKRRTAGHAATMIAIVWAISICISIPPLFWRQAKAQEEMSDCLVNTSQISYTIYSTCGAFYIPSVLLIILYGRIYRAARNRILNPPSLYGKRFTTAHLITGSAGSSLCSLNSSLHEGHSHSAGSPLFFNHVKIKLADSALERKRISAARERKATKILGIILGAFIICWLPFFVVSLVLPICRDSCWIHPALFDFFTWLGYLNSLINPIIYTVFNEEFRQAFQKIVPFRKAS
Chain of Delta-type opioid receptor (Homo sapiens) (P41143 whole entry): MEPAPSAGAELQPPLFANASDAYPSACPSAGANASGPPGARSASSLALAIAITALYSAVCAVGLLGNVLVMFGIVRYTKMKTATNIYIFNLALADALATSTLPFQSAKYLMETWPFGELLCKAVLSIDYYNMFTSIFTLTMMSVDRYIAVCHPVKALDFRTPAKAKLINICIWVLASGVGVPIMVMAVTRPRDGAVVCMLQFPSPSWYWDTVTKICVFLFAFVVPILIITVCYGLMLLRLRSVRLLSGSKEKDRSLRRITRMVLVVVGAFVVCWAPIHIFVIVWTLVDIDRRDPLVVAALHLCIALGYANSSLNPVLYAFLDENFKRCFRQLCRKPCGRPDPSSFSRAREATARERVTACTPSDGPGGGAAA
Chain of 5-hydroxytryptamine receptor 2B (Homo sapiens) (P41595 whole entry): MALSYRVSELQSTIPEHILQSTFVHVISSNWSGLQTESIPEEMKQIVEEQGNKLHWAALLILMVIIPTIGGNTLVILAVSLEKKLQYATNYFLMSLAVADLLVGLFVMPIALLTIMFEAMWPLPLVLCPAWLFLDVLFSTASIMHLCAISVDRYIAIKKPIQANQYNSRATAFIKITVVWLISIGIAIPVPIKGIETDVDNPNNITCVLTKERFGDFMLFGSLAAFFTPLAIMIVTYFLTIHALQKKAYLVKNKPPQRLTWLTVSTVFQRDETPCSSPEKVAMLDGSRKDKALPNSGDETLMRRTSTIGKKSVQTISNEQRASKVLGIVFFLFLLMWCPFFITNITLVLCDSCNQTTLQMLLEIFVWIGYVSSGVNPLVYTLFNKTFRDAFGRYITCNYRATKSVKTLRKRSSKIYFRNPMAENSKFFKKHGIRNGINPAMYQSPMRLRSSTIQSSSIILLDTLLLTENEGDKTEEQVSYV
Chain of Mu-type opioid receptor (Homo sapiens) (P35372 whole entry): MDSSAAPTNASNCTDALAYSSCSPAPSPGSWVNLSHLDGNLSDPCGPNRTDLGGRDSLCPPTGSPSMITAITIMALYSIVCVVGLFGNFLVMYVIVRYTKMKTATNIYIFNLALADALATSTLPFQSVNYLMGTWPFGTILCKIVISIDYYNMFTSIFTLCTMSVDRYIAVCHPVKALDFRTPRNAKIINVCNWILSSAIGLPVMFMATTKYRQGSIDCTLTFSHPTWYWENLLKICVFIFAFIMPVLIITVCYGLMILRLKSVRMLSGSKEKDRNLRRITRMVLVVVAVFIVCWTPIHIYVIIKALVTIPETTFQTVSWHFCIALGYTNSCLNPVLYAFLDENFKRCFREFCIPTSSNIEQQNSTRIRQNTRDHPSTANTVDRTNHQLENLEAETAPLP
Chain of Beta-1 adrenergic receptor (Homo sapiens) (P08588 whole entry, looked up): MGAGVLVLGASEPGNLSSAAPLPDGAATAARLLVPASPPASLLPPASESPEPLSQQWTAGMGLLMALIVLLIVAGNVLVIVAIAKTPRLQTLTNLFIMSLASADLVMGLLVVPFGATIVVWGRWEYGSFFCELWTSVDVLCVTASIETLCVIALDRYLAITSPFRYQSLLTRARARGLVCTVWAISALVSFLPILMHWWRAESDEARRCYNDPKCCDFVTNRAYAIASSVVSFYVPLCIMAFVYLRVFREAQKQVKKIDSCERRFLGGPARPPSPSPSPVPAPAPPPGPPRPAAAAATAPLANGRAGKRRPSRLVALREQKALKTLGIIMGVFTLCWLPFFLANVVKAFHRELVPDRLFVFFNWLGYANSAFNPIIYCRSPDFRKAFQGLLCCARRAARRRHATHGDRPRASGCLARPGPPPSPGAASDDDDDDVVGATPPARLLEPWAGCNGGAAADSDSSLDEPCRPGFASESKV
Chain of Histamine H3 receptor (Homo sapiens) (Q9Y5N1 whole entry): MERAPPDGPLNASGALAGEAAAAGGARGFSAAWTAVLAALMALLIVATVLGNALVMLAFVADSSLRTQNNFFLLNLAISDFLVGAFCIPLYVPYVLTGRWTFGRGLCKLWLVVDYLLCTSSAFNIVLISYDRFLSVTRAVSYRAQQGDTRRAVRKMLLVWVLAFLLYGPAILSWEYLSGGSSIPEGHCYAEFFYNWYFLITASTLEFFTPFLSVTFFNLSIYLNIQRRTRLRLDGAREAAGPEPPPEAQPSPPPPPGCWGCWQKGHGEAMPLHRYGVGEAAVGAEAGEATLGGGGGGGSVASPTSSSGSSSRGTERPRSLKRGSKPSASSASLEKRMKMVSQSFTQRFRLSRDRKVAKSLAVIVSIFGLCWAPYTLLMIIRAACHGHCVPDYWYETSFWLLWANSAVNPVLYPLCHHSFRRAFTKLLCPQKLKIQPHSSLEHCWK
Chain of Alpha-1A adrenergic receptor (Homo sapiens) (P35348 whole entry): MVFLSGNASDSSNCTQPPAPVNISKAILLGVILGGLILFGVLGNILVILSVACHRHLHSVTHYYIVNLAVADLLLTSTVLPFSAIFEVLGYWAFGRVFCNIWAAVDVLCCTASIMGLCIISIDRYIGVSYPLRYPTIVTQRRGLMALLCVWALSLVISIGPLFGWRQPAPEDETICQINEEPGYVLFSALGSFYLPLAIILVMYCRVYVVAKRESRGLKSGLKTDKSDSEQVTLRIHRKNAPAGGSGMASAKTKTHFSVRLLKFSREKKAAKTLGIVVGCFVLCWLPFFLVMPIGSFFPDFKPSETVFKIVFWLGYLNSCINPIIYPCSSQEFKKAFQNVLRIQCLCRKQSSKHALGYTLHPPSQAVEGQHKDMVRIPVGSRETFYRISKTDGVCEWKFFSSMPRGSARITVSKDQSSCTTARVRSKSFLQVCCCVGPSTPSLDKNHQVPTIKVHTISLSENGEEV
Chain of Kappa-type opioid receptor (P41145 whole entry): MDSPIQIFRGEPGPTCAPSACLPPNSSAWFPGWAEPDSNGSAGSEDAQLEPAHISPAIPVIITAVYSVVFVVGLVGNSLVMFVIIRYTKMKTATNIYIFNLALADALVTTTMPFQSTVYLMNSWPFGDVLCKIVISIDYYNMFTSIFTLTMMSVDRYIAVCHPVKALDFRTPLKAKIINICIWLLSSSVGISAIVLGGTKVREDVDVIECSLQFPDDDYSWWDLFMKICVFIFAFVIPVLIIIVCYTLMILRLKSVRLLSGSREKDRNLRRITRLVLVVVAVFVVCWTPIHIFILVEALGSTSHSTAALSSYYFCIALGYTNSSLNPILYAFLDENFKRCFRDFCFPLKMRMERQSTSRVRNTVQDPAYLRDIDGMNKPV

Structure (SMILES): Cc1c(C(=O)NC2(C#N)CCOCC2)nn(-c2ccccc2-c2ccccc2)c1-c1ccccc1
Ki [1]: > 10 µM

Structure (SMILES): Cc1c(C(=O)NC2(C#N)CCOCC2)nn(-c2cccc(Br)c2)c1-c1ccccc1
Ki [1]: > 10 µM

Structure (SMILES): Cc1c(C(=O)N(C)C2(C#N)CCOCC2)nn(-c2ccccc2Cl)c1-c1ccccc1
Ki [2]: > 10 µM
Ki [3]: 0.88 µM
Ki [1]: > 10 µM
Ki [4]: > 10 µM

Structure (SMILES): Cc1c(C(=O)NC2(C#N)CCOCC2)nn(-c2ccccc2Br)c1-c1ccc(F)cc1
Ki [1]: > 10 µM

Structure (SMILES): N#CC1(NC(=O)c2cc(-c3ccccc3)n(-c3ccccc3Br)n2)CCOCC1
Ki [2]: > 10 µM
Ki [3]: 3.11 µM
Ki [1]: > 10 µM
Ki [4]: 0.297 µM

Structure (SMILES): COc1ccc(-c2c(C)c(C(=O)NC3(C#N)CCCCC3)nn2-c2ccccc2Br)cc1
inhibition [5]: < 50%
inhibition [6]: < 50%
inhibition [7]: < 50%
inhibition [8]: < 50%
inhibition [9]: < 50%
inhibition [10]: < 50%
inhibition [11]: < 50%
inhibition [12]: < 50%
inhibition [13]: < 50%
inhibition [14]: < 50%
inhibition [15]: < 50%
inhibition [16]: < 50%
inhibition [17]: < 50%
inhibition [18]: < 50%
inhibition [19]: < 50%
inhibition [20]: < 50%
Ki [21]: 0.597 µM
Ki [22]: > 10 µM
Ki [2]: 2.75 µM
inhibition [23]: < 50%
inhibition [24]: < 50%
inhibition [25]: < 50%
inhibition [26]: < 50%
Ki [3]: 0.279 µM
inhibition [27]: < 50%
inhibition [28]: < 50%
inhibition [29]: < 50%
inhibition [30]: < 50%
inhibition [31]: < 50%
inhibition [32]: < 50%
inhibition [33]: < 50%
inhibition [34]: < 50%
inhibition [35]: < 50%
inhibition [36]: < 50%
inhibition [37]: < 50%
Ki [1]: > 10 µM
inhibition [38]: < 50%
inhibition [39]: < 50%
inhibition [40]: < 50%
Ki [41]: > 10 µM
inhibition [42]: < 50%
Ki [4]: 0.0157 µM
inhibition [43]: < 50%
inhibition [44]: < 50%
inhibition [45]: < 50%
inhibition [46]: < 50%

Structure (SMILES): Cc1c(C(=O)NC2(C#N)CCOCC2)nn(-c2ccccc2Br)c1-c1cccc(F)c1
Ki [2]: > 10 µM
Ki [1]: > 10 µM
Ki [4]: > 10 µM

Structure (SMILES): COc1ccc(-c2c(C)c(C(=O)NC3(C#N)CCOCC3)nn2-c2cccc(Br)c2)cc1
Ki [2]: 0.234 µM
Ki [1]: > 10 µM
Ki [4]: 0.68 µM

Structure (SMILES): Cc1c(C(=O)NC2(C#N)CCOCC2)nn(-c2ccccc2Cl)c1-c1ccccc1
Ki [2]: > 10 µM
Ki [3]: 0.436 µM
Ki [1]: > 10 µM
Ki [4]: > 10 µM

Structure (SMILES): COc1ccc(-c2c(Br)c(C(=O)NC3(C#N)CCOCC3)nn2-c2cccc(Br)c2)cc1
Ki [1]: > 10 µM

Ki [1]: > 10 µM
Structure (SMILES): Cc1c(C(=O)NN2CCCCC2)nn(-c2ccc(Cl)cc2Cl)c1-c1ccc(Cl)cc1 [RIMONABANT]

Structure (SMILES): N#Cc1c(C(=O)NC2(C#N)CCOCC2)nn(-c2ccccc2Br)c1-c1ccccc1
Ki [2]: > 10 µM
Ki [3]: 3.69 µM
Ki [1]: > 10 µM
Ki [4]: 0.437 µM

Structure (SMILES): Cc1c(C(=O)NC2(C#N)CCOCC2)nn(-c2ccc(Br)cc2)c1-c1ccccc1
Ki [2]: 0.655 µM
Ki [1]: > 10 µM
Ki [4]: 0.259 µM

Structure (SMILES): Cc1c(C(=O)NC2(C#N)CCOCC2)nn(-c2ccccc2F)c1-c1ccccc1
Ki [1]: > 10 µM

Structure (SMILES): Cc1c(C(=O)NC2(C#N)CCCCC2)nn(-c2ccccc2Br)c1-c1ccccc1
Ki [1]: > 10 µM

Ki [1]: > 10 µM
Structure (SMILES): CCC(C)N(C)C(=O)c1cc2ccccc2c(-c2ccccc2Cl)n1 (stereo not drawn) [PK-11195]

Structure (SMILES): COc1ccc(-c2c(C)c(C(=O)NC3(C#N)CCOCC3)nn2-c2ccccc2F)cc1
Ki [2]: 2.46 µM
Ki [1]: > 10 µM
Ki [4]: 0.115 µM

Structure (SMILES): COc1ccc(-c2c(C#N)c(C(=O)NC3(C#N)CCOCC3)nn2-c2ccccc2I)cc1
Ki [2]: 2.37 µM
Ki [3]: 1.92 µM
Ki [1]: > 10 µM
Ki [4]: > 10 µM

Structure (SMILES): Cc1c(C(=O)NC2(C#N)CCOCC2)nn(-c2ccccc2Br)c1-c1ccccc1
Ki [1]: > 10 µM

Structure (SMILES): Cc1c(C(=O)NC2(C#N)CCOCC2)nn(-c2ccccc2I)c1-c1ccccc1
Ki [1]: > 10 µM
